Measured values from patent US20050031537A1, “Multifunctional COX-2 inhibitors” (priority 2002, published 2005).

Columns and labels:
HER-2/neu = test: Western blotting for expression of HER-2/neu (test (b)); assay type: cell-based, human; conditions: positive in 184B5/HER, BT474 and SKBR3 cells; 24 h; Western blot
Description: We turn now to the criterion (b), that is at least 50% decrease in level of or 50% downregulation of expression of Class I family of receptors tyrosine kinase. The Class I family of receptors tyrosine kinase is described in Reese, M. D., et al Stem Cells 15, pages 1-8 (1997), the whole of which in incorporated herein by reference. Members of the family include HER-2/neu, HER-3, HER-4 and epidermal growth factor receptor (EGFR) and are single-chain membrane spanning proteins which have significant homology to one another including about 80% amino acid identity in the tyrosine kinase domain.
HER-2/neu (erbB-2) gene product is a 185-kDA transmembrane receptor tyrosine kinase that is described in some detail in said Reese et al publication and overexpression thereof has been associated with tumor growth in several kinds of cancer.
To evaluate the expression of Class I family of receptors tyrosine kinase (EGFR, HER-2/neu), Western blotting can be performed. Antibodies for EGFR and HER-2/neu can be obtained from Santa Cruz Biotechnology, Inc.
Expression of EGFR (performed in 184B5, 184B5/HER, 1483, LNCaP, HeLa and CaSki cells)and HER-2/neu (performed in 184B5/HER, SKBR3 and BT474 cells) was assessed in cells after treatment with test compound for 24 hours. 5×10^6 cells were used for the treatment. Western blotting technique was used to assess the expression levels in cells treated with the test compound compared to vehicle alone. Western blotting was carried out as follows:
Cell lysates were prepared by treating cells with lysis buffer (150 mM NaCl, 100 mM Tris (pH 8.0), 1% Tween 20, 50 mM diethyldithiocarbamate, 1 mM EDTA, 1 mM phenylmethylsulfonyl fluoride, 10 μg/ml aprotinin, 10 μg/ml trypsin inhibitor and 10 μg/ml leupeptin). Lysates were sonicated for 20 s on ice and centrifuged at 10,000×g for 10 min to sediment the particulate material. The protein concentration of the supernatant was measured by the method of Lowry, O. H., et al., J. Biol. Chem. 193, 265-275 (195 1). SDS/PAGE was performed under reducing conditions on 10% polyacrylamide gels as described by Laemmli, U.K., Nature (Lond.) 227, 680-685 (1970). The resolved proteins were transferred onto nitrocellulose sheets as detailed by Towbin, H. et al., Proc. Natl. Acad. Sci. USA 76, 4350-4354 (1979). The nitrocellulose membrane was then incubated with anti-EGFR antiserum or anti-HER-2/neu antiserum. Secondary antibody to IgG conjugated to horseradish peroxidase was used. The various antisera were purchased from Santa Cruz Biotechnology, Inc., CA. The blots were probed with the Renaissance Western blot detection system according to the manufacturer's instructions (PerkinElmer Life Sciences, Boston, Mass.).

[1] = test system: tcf/lef/β-catenin-mediated promoter activation; test: TOPflash/FOPflash reporter assay for tcf/lef/β-catenin-mediated promoter activation (test (f)); assay type: cell-based, human; conditions: positive in 184B5, 184B5/HER, HCA7, HCT116, SKBR3 and BT474 cells; 24 h
Description: Tcf/lef/β-catenin is a transcription factor complex that has been implicated in the regulation of genes involved in carcinogenesis. Increased tcf/lef/β-catenin-mediated gene expression has been linked to pathogenesis of colon cancer. Tcf/lef/β-catenin is described in Barker, N., et al, Adv. Cancer Res. 77, 1-24 (2000), the whole of which is incorporated herein by reference.
Cells (cell lines were 184B5, 184B5/HER, HCA7, HCT116, SKBR3 and BT474) were split into 6 well dishes and the next day were transiently transfected using 8 μg of LipofectAMlNE as per the manufacturer's instructions (Invitrogen, CA). 1.8 μg/dish of the wildtype Tcf/Lef reporter plasmid TOP flash or the mutant plasmid FOP flash was transfected into the cells and 0.2 μg of pSV-β-galactosidase. FOPflash differs from TOPflash by the mutation of its Tcf binding sites and serves to differentiate Tef/-catenin-mediated signaling from background (Upstate Biotechnology, Inc.). Cells were incubated overnight and were treated for 24 hours with either vehicle or test compound. Luciferase activity in the extracts was measured as described above and was corrected for background by subtraction of FOP-FLASH values from corresponding TOP-FLASH values.

PTEN = test: Western and Northern blotting for expression of PTEN (test (e)); assay type: cell-based, human; conditions: for Test (e) at least 50% increase in expression of PTEN: positive in 184B5, 184B5/HER, HCA7, HCT116, SKBR3 and BT474 cells
Protocol: We turn now to criterion (e), i.e., at least 50% increase in expression of PTEN.
PTEN is a tumor suppressor that inhibits cell proliferation and induces programmed cell death. PTEN (also know as MMAC-1 or TEP-1) is described in Yamada, K. M., et al, Journal of Cell Science 114, 2375-2382, the whole of which is incorporated herein by reference.
Western blotting and Northern blotting techniques were used to evaluate the expression of PTEN. The expression of PTEN was evaluated in HCA7, HCT116, SKBR3, 184B5/HER, 184B5 and BT474 cells. 5×10^6cells were used to treat either vehicle alone or the test compound. The Western blotting analysis was performed as described above except anti-PTEN antibody was used to probe the blot. The antibody was obtained from Santa Cruz Biotechnology, Inc. CA. Northern blotting for PTEN was performed as described above and cDNA for PTEN as described in Tamura, M., et al, Science 5; 280 (5369):1614-1617 (1998), was used as a probe.

[2] = Patient with colon cancer (Example IV); assay type: in vivo, human; conditions: person, 800 mg bid
Description: A person presents with symptoms of constipation and rectal bleeding and is diagnosed with colon cancer.

[3] = Patient with oral premalignant lesion (Example VII); assay type: in vivo, human; conditions: person, lozenges 100 mg twice a day for six months
Description: A person presents with a white patch on their tongue and is diagnosed as having an oral premalignant lesion.

[4] = Patient with cervical intraepithelial neoplasia, HPV 16 detected (Example VIII); assay type: in vivo, human; conditions: person, 0.5% in a cream on sponge/cervical cap, six months
Description: A person presents to their gynecologist for evaluation. […] On biopsy, the patient is found to have cervical intraepithelial neoplasia. HPV 16 is detected. […] The SC-236 is discontinued with no recurrence of cervical intraepithelial neoplasia.

[5] = Patient with Alzheimer's disease (Example V); assay type: in vivo, human; conditions: person two, 200 mg bid
Protocol: person two presents with symptoms of memory loss and is diagnosed with Alzheimer's disease. The patient is given and maintained on a 200 mg bid dose of indomethacin heptyl ester. The progression of the symptoms stops.

Row | Structure (SMILES) | Test (b) HER-2/neu: at least 50% decrease in level of or 50% downregulation of expression (HER-2/neu) | Test (f) at least 50% inhibition of tcf/lef/β-catenin-mediated promoter activation [1] | Test (e) at least 50% increase in expression of PTEN (PTEN) | increase in amounts of PTEN (PTEN; 184B5 cells, 24 hours, Western blotting) [%] | rate of progression of the colon cancer [2] | outcome of oral premalignant lesion [3] | repeat biopsy finding of cervical intraepithelial neoplasia [4] | progression of the symptoms (memory loss, Alzheimer's disease) [5]
1 | COc1ccc(OC(=O)Cc2c(C)n(C(=O)c3ccc(Cl)cc3)c3ccc(OC)cc23)cc1 [Indomethacin Analog 3, 1-(p-chlorobenzoyl)-5-methoxy-2-methyl-1H-indole-3-acetic acid, 4-methoxyphenyl ester] | + (A plus sign in the table indicates a positive result, that is meeting the test for each cell line as indicated above as providing a positive result) | + (A plus sign in the table indicates a positive result, that is meeting the test for each cell line as indicated above as providing a positive result) |  |  |  |  |  | 
2 | CS(=O)(=O)c1ccc(-n2nc(C(F)(F)F)cc2-c2ccc(F)cc2)cc1 [SC-58125, 4-[5-(4-fluorophenyl)-3-(trifluoromethyl)-1H-pyrazol-1-yl]benzenemethylsulfone] | + (A plus sign in the table indicates a positive result, that is meeting the test for each cell line as indicated above as providing a positive result) | + (A plus sign in the table indicates a positive result, that is meeting the test for each cell line as indicated above as providing a positive result) | + (A plus sign in the table indicates a positive result, that is meeting the test for each cell line as indicated above as providing a positive result) |  |  |  |  | 
3 | NS(=O)(=O)c1ccc(-n2nc(C(F)(F)F)cc2-c2ccc(Cl)cc2)cc1 [SC-236, 4-[5-(4-chlorophenyl)-3-(trifluoromethyl)-1H-pyrazol-1-yl]benzenesulfonamide] | + (A plus sign in the table indicates a positive result, that is meeting the test for each cell line as indicated above as providing a positive result) | + (A plus sign in the table indicates a positive result, that is meeting the test for each cell line as indicated above as providing a positive result) | + (A plus sign in the table indicates a positive result, that is meeting the test for each cell line as indicated above as providing a positive result) | > 100 | decreases | resolution of the premalignant lesion | no further evidence of cervical intraepithelial neoplasia | 
4 | Cc1ccc(-c2cc(C(F)(F)F)nn2-c2ccc(S(N)(=O)=O)cc2)cc1 [Celecoxib] | + (A plus sign in the table indicates a positive result, that is meeting the test for each cell line as indicated above as providing a positive result) | + (A plus sign in the table indicates a positive result, that is meeting the test for each cell line as indicated above as providing a positive result) | + (A plus sign in the table indicates a positive result, that is meeting the test for each cell line as indicated above as providing a positive result) |  | decreases |  |  | 
5 | CCCCCCCOC(=O)Cc1c(C)n(C(=O)c2ccc(Cl)cc2)c2ccc(OC)cc12 [Indomethacin Analog 1, indomethacin heptyl ester] | + (A plus sign in the table indicates a positive result, that is meeting the test for each cell line as indicated above as providing a positive result) | + (A plus sign in the table indicates a positive result, that is meeting the test for each cell line as indicated above as providing a positive result) | + (A plus sign in the table indicates a positive result, that is meeting the test for each cell line as indicated above as providing a positive result) |  |  |  |  | stops
